In publication PMC11862108, “Nitro‐fatty acids‐mediated nitroalkylation modulates fine‐tuning catalase antioxidant function during salinity stress in plants” (Protein Science : A Publication of the Protein Society, 2025):

Assays:
[1] = biological target: T1, Arabidopsis recombinant CAT2 protein (Arabidopsis thaliana, UniProt P25819); experiment: H2O2 disappearance at […] nm; format: biochemical; conditions: 30 min preincubation at 25 °C; covalent (nitroalkylation of His); NO2-Ln concentration not given; MeOH vehicle control; regioisomer not defined
T1 construct: commercial recombinant protein (LSBio, Life Span BioSciences); heme enzyme
T1 sequence (P25819 1-492): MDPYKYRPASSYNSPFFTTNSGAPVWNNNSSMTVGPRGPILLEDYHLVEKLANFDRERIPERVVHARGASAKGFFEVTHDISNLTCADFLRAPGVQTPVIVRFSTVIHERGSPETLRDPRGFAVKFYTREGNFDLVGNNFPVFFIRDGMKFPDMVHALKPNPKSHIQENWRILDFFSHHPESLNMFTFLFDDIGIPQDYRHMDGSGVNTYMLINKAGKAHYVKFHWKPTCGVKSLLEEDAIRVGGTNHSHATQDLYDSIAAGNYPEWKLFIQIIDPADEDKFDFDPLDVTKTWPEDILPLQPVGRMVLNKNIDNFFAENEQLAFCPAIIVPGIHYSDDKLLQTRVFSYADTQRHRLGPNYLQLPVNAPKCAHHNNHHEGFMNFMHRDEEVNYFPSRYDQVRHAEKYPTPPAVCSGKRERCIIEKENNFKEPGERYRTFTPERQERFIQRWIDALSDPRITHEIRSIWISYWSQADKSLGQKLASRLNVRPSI

[2] = biological target: T2, CAT from bovine liver (Bos taurus, UniProt P00432); experiment: H2O2 disappearance at […] nm; format: biochemical; conditions: 30 min preincubation at 25 °C; NO2-Ln concentration not given; MeOH vehicle control; regioisomer not defined
T2 construct: commercial bovine liver catalase (Sigma)
T2 sequence (P00432 2-527): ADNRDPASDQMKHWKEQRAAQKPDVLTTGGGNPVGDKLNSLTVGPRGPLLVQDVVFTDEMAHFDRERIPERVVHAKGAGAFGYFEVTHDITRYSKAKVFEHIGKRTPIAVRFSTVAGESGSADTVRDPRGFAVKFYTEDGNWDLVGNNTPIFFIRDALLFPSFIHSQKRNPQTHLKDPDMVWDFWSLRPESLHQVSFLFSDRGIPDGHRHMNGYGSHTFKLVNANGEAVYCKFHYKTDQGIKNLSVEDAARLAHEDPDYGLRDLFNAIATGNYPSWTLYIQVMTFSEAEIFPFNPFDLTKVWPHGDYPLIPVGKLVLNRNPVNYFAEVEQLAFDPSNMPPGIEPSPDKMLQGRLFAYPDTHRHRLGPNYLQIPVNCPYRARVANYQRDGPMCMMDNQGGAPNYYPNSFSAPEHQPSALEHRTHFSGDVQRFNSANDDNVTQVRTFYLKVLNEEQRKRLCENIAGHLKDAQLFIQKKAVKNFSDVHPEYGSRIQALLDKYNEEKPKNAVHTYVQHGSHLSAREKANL

NO2-Ln
% inhibition [1]: 36%
% inhibition [2]: 60%
